Results from patent publication US20080119515A1, “Heterocyclic Kinase Inhibitors: Methods of Use and Synthesis” (priority 2003, published 2008).

Biological target: T1, ZAP-70 (Homo sapiens, UniProt P43403)
T1 sequence (P43403 1-619): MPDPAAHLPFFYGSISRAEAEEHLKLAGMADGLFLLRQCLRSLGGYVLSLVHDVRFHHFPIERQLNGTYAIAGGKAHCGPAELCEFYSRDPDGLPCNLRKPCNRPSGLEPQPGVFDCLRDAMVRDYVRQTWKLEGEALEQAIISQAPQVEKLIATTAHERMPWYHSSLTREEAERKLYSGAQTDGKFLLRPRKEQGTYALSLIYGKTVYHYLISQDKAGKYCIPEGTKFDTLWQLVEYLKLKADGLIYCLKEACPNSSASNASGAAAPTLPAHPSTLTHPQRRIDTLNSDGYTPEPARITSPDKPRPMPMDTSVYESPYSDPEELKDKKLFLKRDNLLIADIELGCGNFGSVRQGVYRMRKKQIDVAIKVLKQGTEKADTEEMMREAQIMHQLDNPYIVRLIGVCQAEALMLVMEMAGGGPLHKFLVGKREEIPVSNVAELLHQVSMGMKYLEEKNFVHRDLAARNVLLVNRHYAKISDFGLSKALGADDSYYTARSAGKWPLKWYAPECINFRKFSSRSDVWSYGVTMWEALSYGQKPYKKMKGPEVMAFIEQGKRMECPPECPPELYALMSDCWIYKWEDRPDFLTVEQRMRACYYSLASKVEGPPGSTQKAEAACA
Experiment: DELFIA assay (ZAP-70 kinase, phosphorylation of biotinylated poly(glu,tyr))
Format: biochemical
Details: ZAP-70 DELFIA, class symbols; read-out: Activity (IC50 in vitro)
Description: Before initiation of kinase reactions, compounds were pre-incubated with ZAP-70. Pre-incubation reactions contained 62.5 mM Mops pH 7.0, 12.5 mM MgCl2, 12.5% glycerol, 3.1 nM ZAP-70, 62.5 nM biotinylated poly(glu,Tyr), 0.1 mg/ml BSA, 6.25% DMSO and […] compound in a total volume of […]. After a 10 minute room temperature incubation, 10 ml of 5 mM ATP was added to start the reaction. Reactions were incubated at room temperature for 30 minutes then terminated by addition of 5 ml 500 mM EDTA. The amount of phosphate transferred to biotinylated poly(glu,tyr) was measured using the Dissociation Enhanced Lanthanide Fluorescence Immuno-assay (DELFIA) from Perkin Elmer according to manufacturers protocol. Briefly, biotinylated […] was captured on streptavidin coated plates, washed twice, then incubated with Europium labeled-anti-phosphotyrosine antibody. Free antibody was removed with six washes, Europium was dissociated from the antibody, and Europium fluorescence was measured at using an excitation wavelength of 340 nm and an emission wavelength of 615 nm.

Compound | IC50 [nM]
O=C(c1cc(NCCN2CCCCC2)nc2ccc(-c3ccc4c(c3)OCO4)cc12)N1CCC[C@H]1CN1CCCC1 [Compound 32] | > 10000
CCC(Nc1cc(C(=O)N2CCC[C@H]2CN2CCCC2)c2cc(-c3ccc4c(c3)OCO4)ccc2n1)c1ccccc1 (stereo partly drawn) [Compound 43] | < 1000
C[C@@H](O)CNc1cc(C(=O)N2CCC[C@H]2CN2CCCC2)c2cc(-c3ccc4c(c3)OCO4)ccc2n1 [Compound 47] | 1000 to 10000
O=C(c1cc(NCCc2c[nH]cn2)nc2ccc(-c3ccc4c(c3)OCO4)cc12)N1CCC[C@H]1CN1CCCC1 [Compound 49] | 1000 to 10000
CC(CNc1cc(C(=O)N2CCC[C@H]2CN2CCCC2)c2cc(-c3ccc4c(c3)OCO4)ccc2n1)c1ccccc1 (stereo partly drawn) [Compound 54] | < 1000
CC(=O)N1CCN(c2cc(C(=O)N3CCC[C@H]3CN3CCCC3)c3cc(-c4ccc5c(c4)OCO5)ccc3n2)CC1 [Compound 58] | 1000 to 10000
CN(C)c1cc(C(=O)N2CCC[C@H]2CN2CCCC2)c2cc(-c3ccc4c(c3)OCO4)ccc2n1 [Compound 59] | 1000 to 10000
CN1CCC(N(C)c2cc(C(=O)N3CCC[C@H]3CN3CCCC3)c3cc(-c4ccc5c(c4)OCO5)ccc3n2)CC1 [Compound 60] | < 1000
CN1CCN(c2cc(C(=O)N3CCC[C@H]3CN3CCCC3)c3cc(-c4ccc5c(c4)OCO5)ccc3n2)CC1 [Compound 61] | 1000 to 10000
O=C(c1cc(N2CCOCC2)nc2ccc(-c3ccc4c(c3)OCO4)cc12)N1CCC[C@H]1CN1CCCC1 [Compound 62] | 1000 to 10000
O=C(c1cc(N2CCCC2)nc2ccc(-c3ccc4c(c3)OCO4)cc12)N1CCC[C@H]1CN1CCCC1 [Compound 63] | 1000 to 10000
O=C(c1cc(N2CCC(N3CCCC3)CC2)nc2ccc(-c3ccc4c(c3)OCO4)cc12)N1CCC[C@H]1CN1CCCC1 [Compound 64] | 1000 to 10000
O=C(c1cc(N2CCc3ccccc3C2)nc2ccc(-c3ccc4c(c3)OCO4)cc12)N1CCC[C@H]1CN1CCCC1 [Compound 65] | < 1000
CN(CCC#N)c1cc(C(=O)N2CCC[C@H]2CN2CCCC2)c2cc(-c3ccc4c(c3)OCO4)ccc2n1 [Compound 66] | 1000 to 10000
CN(C)CCN(C)c1cc(C(=O)N2CCC[C@H]2CN2CCCC2)c2cc(-c3ccc4c(c3)OCO4)ccc2n1 [Compound 67] | > 10000
CCN(Cc1ccccc1)c1cc(C(=O)N2CCC[C@H]2CN2CCCC2)c2cc(-c3ccc4c(c3)OCO4)ccc2n1 [Compound 68] | < 1000
CC(=O)N[C@H]1CCN(c2cc(C(=O)N3CCC[C@H]3CN3CCCC3)c3cc(-c4ccc5c(c4)OCO5)ccc3n2)C1 [Compound 69] | > 10000
CN(c1cc(C(=O)N2CCC[C@H]2CN2CCCC2)c2cc(-c3ccc4c(c3)OCO4)ccc2n1)C1CCCCC1 [Compound 70] | < 1000
CC(=O)NCCNc1cc(C(=O)N2CCC[C@H]2CN2CCCC2)c2cc(-c3ccc4c(c3)OCO4)ccc2n1 [Compound 71] | > 10000
CCN(CCOC)c1cc(C(=O)N2CCC[C@H]2CN2CCCC2)c2cc(-c3ccc4c(c3)OCO4)ccc2n1 [Compound 72] | 1000 to 10000
COCCN1CCN(c2cc(C(=O)N3CCC[C@H]3CN3CCCC3)c3cc(-c4ccc5c(c4)OCO5)ccc3n2)CC1 [Compound 73] | 1000 to 10000
CN(CCO)c1cc(C(=O)N2CCC[C@H]2CN2CCCC2)c2cc(-c3ccc4c(c3)OCO4)ccc2n1 [Compound 74] | 1000 to 10000
CN(C)[C@@H]1CCN(c2cc(C(=O)N3CCC[C@H]3CN3CCCC3)c3cc(-c4ccc5c(c4)OCO5)ccc3n2)C1 [Compound 75] | 1000 to 10000
O=C(c1cc(N(CCO)Cc2ccccc2)nc2ccc(-c3ccc4c(c3)OCO4)cc12)N1CCC[C@H]1CN1CCCC1 [Compound 76] | < 1000
CN(Cc1ccc(Cl)c(Cl)c1)c1cc(C(=O)N2CCC[C@H]2CN2CCCC2)c2cc(-c3ccc4c(c3)OCO4)ccc2n1 [Compound 77] | < 1000

Further lines, results first:

IC50 [nM] | Compound
< 1000 | O=C(c1cc(NCc2ccc(F)cc2)nc2ccc(-c3ccc4c(c3)OCO4)cc12)N1CCC[C@H]1CN1CCCC1 [Compound 30]
< 1000 | O=C(c1cc(NCc2cccc(F)c2)nc2ccc(-c3ccc4c(c3)OCO4)cc12)N1CCC[C@H]1CN1CCCC1 [Compound 31]
1000 to 10000 | O=C(c1cc(NCc2ccccn2)nc2ccc(-c3ccc4c(c3)OCO4)cc12)N1CCC[C@H]1CN1CCCC1 [Compound 33]
1000 to 10000 | O=C(c1cc(NCc2cccnc2)nc2ccc(-c3ccc4c(c3)OCO4)cc12)N1CCC[C@H]1CN1CCCC1 [Compound 34]
< 1000 | O=C(c1cc(NCc2ccc(Cl)cc2)nc2ccc(-c3ccc4c(c3)OCO4)cc12)N1CCC[C@H]1CN1CCCC1 [Compound 35]
< 1000 | O=C(c1cc(NCc2ccccc2Cl)nc2ccc(-c3ccc4c(c3)OCO4)cc12)N1CCC[C@H]1CN1CCCC1 [Compound 36]
< 1000 | O=C(c1cc(NCCc2ccccc2)nc2ccc(-c3ccc4c(c3)OCO4)cc12)N1CCC[C@H]1CN1CCCC1 [Compound 37]
1000 to 10000 | O=C(c1cc(NCc2ccncc2)nc2ccc(-c3ccc4c(c3)OCO4)cc12)N1CCC[C@H]1CN1CCCC1 [Compound 38]
1000 to 10000 | O=C(c1cc(NC2CCC2)nc2ccc(-c3ccc4c(c3)OCO4)cc12)N1CCC[C@H]1CN1CCCC1 [Compound 39]
< 1000 | O=C(c1cc(NCc2ccc(F)c(Cl)c2)nc2ccc(-c3ccc4c(c3)OCO4)cc12)N1CCC[C@H]1CN1CCCC1 [Compound 40]
< 1000 | O=C(c1cc(N[C@H]2CCc3ccccc32)nc2ccc(-c3ccc4c(c3)OCO4)cc12)N1CCC[C@H]1CN1CCCC1 [Compound 41]
1000 to 10000 | O=C(c1cc(N[C@@H]2CCc3ccccc32)nc2ccc(-c3ccc4c(c3)OCO4)cc12)N1CCC[C@H]1CN1CCCC1 [Compound 42]
< 1000 | O=C(c1cc(NCc2ccc(C(F)(F)F)cc2)nc2ccc(-c3ccc4c(c3)OCO4)cc12)N1CCC[C@H]1CN1CCCC1 [Compound 44]
< 1000 | O=C(c1cc(NCCc2ccc(Cl)cc2Cl)nc2ccc(-c3ccc4c(c3)OCO4)cc12)N1CCC[C@H]1CN1CCCC1 [Compound 45]
< 1000 | O=C(c1cc(NCc2ccc(F)cc2F)nc2ccc(-c3ccc4c(c3)OCO4)cc12)N1CCC[C@H]1CN1CCCC1 [Compound 46]
1000 to 10000 | O=C(c1cc(N[C@@H]2c3ccccc3C[C@@H]2O)nc2ccc(-c3ccc4c(c3)OCO4)cc12)N1CCC[C@H]1CN1CCCC1 [Compound 48]
< 1000 | O=C(c1cc(NCc2cccs2)nc2ccc(-c3ccc4c(c3)OCO4)cc12)N1CCC[C@H]1CN1CCCC1 [Compound 50]
< 1000 | O=C(c1cc(Nc2ccc(Oc3ccccc3)cc2)nc2ccc(-c3ccc4c(c3)OCO4)cc12)N1CCC[C@H]1CN1CCCC1 [Compound 51]
< 1000 | O=C(c1cc(Nc2ccc(Cl)cc2)nc2ccc(-c3ccc4c(c3)OCO4)cc12)N1CCC[C@H]1CN1CCCC1 [Compound 52]
< 1000 | O=C(c1cc(Nc2ccc3c(c2)OCO3)nc2ccc(-c3ccc4c(c3)OCO4)cc12)N1CCC[C@H]1CN1CCCC1 [Compound 53]
< 1000 | O=C(c1cc(NCC(O)c2ccccc2)nc2ccc(-c3ccc4c(c3)OCO4)cc12)N1CCC[C@H]1CN1CCCC1 (stereo partly drawn) [Compound 55]
< 1000 | O=C(c1cc(Nc2ccc3ncsc3c2)nc2ccc(-c3ccc4c(c3)OCO4)cc12)N1CCC[C@H]1CN1CCCC1 [Compound 56]
< 1000 | O=C(c1cc(Nc2ccc3cn[nH]c3c2)nc2ccc(-c3ccc4c(c3)OCO4)cc12)N1CCC[C@H]1CN1CCCC1 [Compound 57]
